One block for each compound: values may come before it.
Tests used:
[1] = test system: naproxen-induced peptic ulcer model; assay: Anti-ulcer activity in animal model of acute peptic ulcer induced by naproxen; assay type: in vivo, SD rat; conditions: for ED50: Rattus norvegicus, read-out: ED50 (anti-ulcer efficacy)
Description: Specifically, each of tegoprazan (0.1 to 10 mg/kg) and esomeprazole (0.3 to 30 mg/kg) was orally administered to each SD rat that has fasted for 72 hours.

[2] = Pharmacokinetic interaction of tegoprazan and naproxen, alone or in combination (Cohort 1); assay type: in vivo, human (healthy adult males); conditions: for effect of co-administration on pharmacokinetic properties: co-administration of tegoprazan and naproxen compared with administration alone
clinical = assay: clinical; set-up: dose or concentration left out as unconfirmed
Description: (§1) The pharmacokinetic interactions of tegoprazan and aceclofenac when administered alone or in combination were evaluated in healthy adult males.

[3] = Pharmacokinetic interaction of tegoprazan and aceclofenac, alone or in combination (Cohort 2); conditions: for effect of co-administration on pharmacokinetic properties: co-administration of tegoprazan and aceclofenac compared with administration alone; for Css,max, Geometric LS Mean: 7 days, N = 16
Description: as §1

[4] = Pharmacokinetic interaction of tegoprazan and celecoxib, alone or in combination (Cohort 3); conditions: for effect of co-administration on pharmacokinetic properties: co-administration of tegoprazan and celecoxib compared with administration alone; for AUC: male, human, in vivo; for Css,max, Geometric LS Mean: 7 days, N = 13
[5] = tegoprazan, Treatment A: 50 mg tegoprazan alone once a day
[6] = tegoprazan, co-administered with aceclofenac vs alone
[7] = tegoprazan, co-administered with naproxen vs alone
[8] = tegoprazan, co-administered with celecoxib vs alone

- Css,max, Geometric LS Mean ([2]; naproxen, Treatment B: 500 mg naproxen alone twice a day, 7 days, N = 17): 92.34 ng/mL
- Css,max, Geometric LS Mean ([2]; naproxen, Treatment C: 50 mg tegoprazan once a day + 500 mg naproxen twice a day, 7 days, N = 17): 95.60 ng/mL
Structure (SMILES): COc1ccc2cc([C@H](C)C(=O)O)ccc2c1 [Naproxen, naproxen, reference compound]
- effect of co-administration on pharmacokinetic properties [2]: does not affect the pharmacokinetic properties

- AUC ([3]; male, human, in vivo, 50 mg): 2680 ng·h/mL
- Css,max, Geometric LS Mean [3, 5]: 562.13 ng/mL
- Css,max, Geometric LS Mean ([3]; tegoprazan, Treatment E: 50 mg tegoprazan once a day + 100 mg aceclofenac twice a day): 529.98 ng/mL
- AUCτ, Geometric LS Mean Ratio (Treatment E/Treatment A), Point Estimate [3, 6]: 1.0269
- Css,max, Geometric LS Mean Ratio (Treatment E/Treatment A), Point Estimate [3, 6]: 0.9428
- AUC ([2]; male, human, in vivo, tegoprazan, Treatment A: 50 mg tegoprazan alone once a day, 7 days, N = 17, read-out: AUCτ, Geometric LS Mean): 2650 ng·h/mL
- Css,max, Geometric LS Mean ([2]; tegoprazan, Treatment A: 50 mg tegoprazan alone once a day, 7 days, N = 17): 512.79 ng/mL
- Css,max, Geometric LS Mean ([2]; tegoprazan, Treatment C: 50 mg tegoprazan once a day + 500 mg naproxen twice a day, 7 days, N = 17): 505.59 ng/mL
- AUCτ, Geometric LS Mean Ratio (Treatment C/Treatment A), Point Estimate [2, 7]: 1.0105
- Css,max, Geometric LS Mean Ratio (Treatment C/Treatment A), Point Estimate [2, 7]: 0.9859
- AUC ([4]; 50 mg): 2990 ng·h/mL
- Css,max, Geometric LS Mean [4, 5]: 663.83 ng/mL
- Css,max, Geometric LS Mean ([4]; tegoprazan, Treatment G: 50 mg tegoprazan once a day + 200 mg celecoxib twice a day): 676.24 ng/mL
- AUCτ, Geometric LS Mean Ratio (Treatment G/Treatment A), Point Estimate [4, 8]: 1.0111
- Css,max, Geometric LS Mean Ratio (Treatment G/Treatment A), Point Estimate [4, 8]: 1.0187
Structure (SMILES): Cc1nc2cc(C(=O)N(C)C)cc(O[C@H]3CCOc4cc(F)cc(F)c43)c2[nH]1 [Tegoprazan, (S)-4-(5,7-difluorochroman-4-yloxy)-N,N,2-trimethyl-1H-benzo[d]imidazole-6-carboxamide]
- ED50 [1]: 0.123 mg/kg
- anti-ulcer activity ([1]; naproxen-induced peptic ulcer model, SD rats, oral 0.1 to 10 mg/kg): excellent anti-ulcer activity
- effect of co-administration on pharmacokinetic properties [3]: does not affect the pharmacokinetic properties
- effect of co-administration on pharmacokinetic properties [2]: does not affect the pharmacokinetic properties
- effect of co-administration on pharmacokinetic properties [4]: does not affect the pharmacokinetic properties

The next lines start with the compound.

Structure (SMILES): COc1ccc2nc([S@@+]([O-])Cc3ncc(C)c(OC)c3C)[nH]c2c1 [esomeprazole, reference compound]
- ED50 [1]: 4.12 mg/kg

Structure (SMILES): O=C(O)COC(=O)Cc1ccccc1Nc1c(Cl)cccc1Cl [Aceclofenac, aceclofenac, reference compound]
- AUC (clinical): 20100 ng·h/mL
- effect of co-administration on pharmacokinetic properties [3]: does not affect the pharmacokinetic properties

Structure (SMILES): Cc1ccc(-c2cc(C(F)(F)F)nn2-c2ccc(S(N)(=O)=O)cc2)cc1 [Celecoxib, celecoxib, reference compound]
- Css,max, Geometric LS Mean ([4]; celecoxib, Treatment F: 200 mg celecoxib alone twice a day): 1140 ng/mL
- Css,max, Geometric LS Mean ([4]; celecoxib, Treatment G: 50 mg tegoprazan once a day + 200 mg celecoxib twice a day): 1350 ng/mL
- effect of co-administration on pharmacokinetic properties [4]: does not affect the pharmacokinetic properties
- AUC ([4]; 200 mg): 7800 ng·h/mL

From patent publication US20230158001A1, “PHARMACEUTICAL COMPOSITION COMPRISING BENZIMIDAZOLE DERIVATIVE COMPOUND” (HK INNO.N CORPORATION, priority 2020, published 2023)
